Our source for the MIC values is patent US9085589B2, “Cephem derivative” (SHIONOGI & CO., LTD., priority 2010, dated 2015).

What all share (assay type): cell-based
The test system of experiment [1] is Pseudomonas aeruginosa SR24. In words: MIC, agar plate incubation (Japan Society for Chemotherapy standard method). The conditions noted are these: P. aeruginosa SR24, ceftazidime sensitive strain, sensitive disc medium, 1000 cfu/spot, read-out: Minimum Inhibitory Concentration (MIC). As to the method: (§1) (Test Methods for Compounds (I-1) to (I-9), (I-16), (I-17) and (I-23))
(§2) (Microbe/Strain Species Nos. 1 to 4 and 6 to 8):
(§3) Measurement of Minimum Inhibitory Concentration (MIC: microgram/ml) was conducted according to the standard method of the Japan Society for Chemotherapy, and the amount of bacteria for inoculation was 1000 cfu/spot, and sensitive disc medium was used as the test medium, and conducted using agar plate incubation.

For experiment [2], the system named is Streptococcus pneumoniae Type I. The description is as above. The conditions noted are these: S. pneumoniae Type I, PSSP, sensitive disc medium, 1000 cfu/spot, read-out: Minimum Inhibitory Concentration (MIC). How it is done:
as §1, §2, §3

The test system of experiment [3] is Acinetobacter baumannii SR24396. The description is as above. The conditions noted are these: A. baumannii SR24396, sensitive disc medium, 1000 cfu/spot, read-out: Minimum Inhibitory Concentration (MIC). As to the method: as §1, §2, §3
Experiment [4] relates to Pseudomonas aeruginosa SR27060. The experiment is described as above. The conditions noted are these: P. aeruginosa SR27060, IMP-1, MBL producing (carbapenem resistant) strain, sensitive disc medium, 1000 cfu/spot, read-out: Minimum Inhibitory Concentration (MIC). As to the method:
as §1, §2, §3

The test system of experiment [5] is Klebsiella pneumoniae ATCC 700603. The experiment is described as above. The conditions noted are these: K. pneumoniae ATCC700603, SHV-18, ESBL producing strain, sensitive disc medium, 1000 cfu/spot, read-out: Minimum Inhibitory Concentration (MIC). How it is done: as §1, §2, §3
Experiment [6] has as its system Stenotrohomonas maltophilia SR21970. Put plainly: MIC, agar plate incubation (CLSI), Mueller-Hinton agar. The conditions noted are these: Stenotrophomonas maltophilia, S. maltophilia SR21970, L-1, MBL producing (carbapenem resistant) strain, 10000 cfu/spot, read-out: Minimum Inhibitory Concentration (MIC). As to the method: as §1
(Microbe/Strain Species No. 5):
Measurement of Minimum Inhibitory Concentration (MIC, microgram/ml) was conducted according to the CLSI (Clinical and Laboratory Standards Institute) and the amount of bacteria for inoculation was 10000 cfu/spot, and Mueller-Hinton agar medium was used as the test medium, and conducted using agar plate incubation.

Experiment [7] shares this test system. Put plainly: MIC, broth microdilution (CLSI), medium with human Apo-transferrin. The conditions noted are these: Stenotrophomonas maltophilia, S. maltophilia SR21970, L-1, MBL producing (carbapenem resistant) strain, cation adjusted Mueller-Hinton + human Apo-transferrin, 5×10^5 cfu/mL, read-out: Minimum Inhibitory Concentration (MIC). As to the method: (§4) (Test Methods for Compounds (I-10) to (I-15))
(§5) (Microbe/Strain Species Nos. 1 to 5):
(§6) Measurement of Minimum Inhibitory Concentration (MIC, microgram/ml) was conducted according to the CLSI (Clinical and Laboratory Standards Institute) and the amount of bacteria for inoculation was 5×10^5 cfu/mL, and cation adjusted Mueller-Hinton liquid medium added human Apo-tranferrin was used as the test medium, and conducted using broth microdilution method.
(§7) (Test Methods for Compounds (I-18) to (I-22))

Experiment [8] concerns Pseudomonas aeruginosa SR24. Described as above. The conditions noted are these: P. aeruginosa SR24, ceftazidime sensitive strain, cation adjusted Mueller-Hinton + human Apo-transferrin, 5×10^5 cfu/mL, read-out: Minimum Inhibitory Concentration (MIC). As to the method: as §4, §5, §6, §7
Experiment [9] relates to Acinetobacter baumannii SR24396. The experiment is described as above. The conditions noted are these: A. baumannii SR24396, cation adjusted Mueller-Hinton + human Apo-transferrin, 5×10^5 cfu/mL, read-out: Minimum Inhibitory Concentration (MIC). How it is done:
as §4, §5, §6, §7

For experiment [10], the system named is Pseudomonas aeruginosa SR27060. The description is as above. The conditions noted are these: P. aeruginosa SR27060, IMP-1, MBL producing (carbapenem resistant) strain, cation adjusted Mueller-Hinton + human Apo-transferrin, 5×10^5 cfu/mL, read-out: Minimum Inhibitory Concentration (MIC). How it is done:
as §4, §5, §6, §7

The subject of experiment [11] is Klebsiella pneumoniae ATCC 700603. The description is as above. The conditions noted are these: K. pneumoniae ATCC700603, SHV-18, ESBL producing strain, cation adjusted Mueller-Hinton + human Apo-transferrin, 5×10^5 cfu/mL, read-out: Minimum Inhibitory Concentration (MIC). As to the method:
as §4, §5, §6, §7

The subject of experiment [12] is Staphylococcus aureus Smith. In words: MIC, agar plate incubation (Japan Society for Chemotherapy standard method). The conditions noted are these: S. aureus Smith, MSSA, sensitive disc medium, 1000 cfu/spot, read-out: Minimum Inhibitory Concentration (MIC). How it is done:
as §1, §2, §3

Experiment [13] relates to Streptococcus pneumoniae SR16675. The experiment is described as above. The conditions noted are these: S. pneumoniae SR16675, PRSP, sensitive disc medium, 1000 cfu/spot, read-out: Minimum Inhibitory Concentration (MIC). As to the method: as §1, §2, §3

SMILES strings stand for the structures. Converted amounts (≈) assume the structure as drawn.

Consider `CCN1CCN(C(=O)N[C@@H](C(=O)N[C@@H]2C(=O)N3C(C(=O)[O-])=C(C[N+]45CCC(CNC(=O)c6ccc(O)c(O)c6Cl)(CC4)CC5)CO[C@H]23)c2ccccc2)C(=O)C1=O` [Compound I-23], for which the MIC in [1] was 0.5 µg/mL (≈ 0.619 µM); in experiment [2], 0.5 µg/mL (≈ 0.619 µM); in experiment [3], 1 µg/mL (≈ 1.24 µM); in [4], 4 µg/mL (≈ 4.95 µM); in experiment [5], 16 µg/mL (≈ 19.8 µM); in experiment [6] it was more than 64 µg/mL.

For `CCN1CCN(C(=O)N[C@@H](C(=O)N[C@@H]2C(=O)N3C(C(=O)[O-])=C(C[N@+]4(C)[C@@H]5CC[C@H]4C[C@@H](NC(=O)c4ccc(O)c(O)c4Cl)C5)CS[C@H]23)c2ccccc2)C(=O)C1=O` [Compound I-18], the MIC turned out to be 4 µg/mL in experiment [7]; 0.125 µg/mL in [8]; 0.25 µg/mL in experiment [9]; 2 µg/mL in experiment [10]; 2 µg/mL in experiment [11].

With `CC(C)(O/N=C(\C(=O)N[C@@H]1C(=O)N2C(C(=O)[O-])=C(C[N@+]34CCC[C@H]3CN(C(=O)c3ccc(O)c(O)c3Cl)CC4)CS[C@H]12)c1ccc(O)cc1)C(=O)[O-].[Na+]` [Compound I-15], the MIC in experiment [7] was 0.5 µg/mL; in [8] it was 0.5 µg/mL; in experiment [9], 4 µg/mL; in [10], 2 µg/mL; in experiment [11] it was 32 µg/mL.

In the case of `Nc1nc(C(=CCC(=O)[O-])C(=O)N[C@@H]2C(=O)N3C(C(=O)[O-])=C(C[N+]4(CCNC(=O)c5ccc(O)c(O)c5Cl)CCCC4)CS[C@H]23)cs1.[Na+]` [Compound I-8], the MIC in experiment [1] stood at 0.25 µg/mL; in experiment [2], 4 µg/mL; in experiment [3], 0.25 µg/mL; in experiment [4], 2 µg/mL; in experiment [5], 0.5 µg/mL; in experiment [6], 4 µg/mL.

As to `CCN1CCN(C(=O)N[C@@H](C(=O)N[C@@H]2C(=O)N3C(C(=O)[O-])=C(C[N+]4(CCNC(=O)c5ccc(O)c(O)c5Cl)CCCC4)CS[C@H]23)c2ccccc2)C(=O)C1=O` [Compound I-1], the MIC is 4 µg/mL (≈ 5.01 µM) in experiment [12]; 0.063 µg/mL (≈ 0.0789 µM) in experiment [1]; 8 µg/mL (≈ 10 µM) in [13]; 0.5 µg/mL (≈ 0.626 µM) in experiment [2]; 0.5 µg/mL (≈ 0.626 µM) in [3]; 0.5 µg/mL (≈ 0.626 µM) in experiment [4]. Also, the figures for the MIC in experiment [5] and in experiment [6] were 1 µg/mL (≈ 1.25 µM) and 2 µg/mL (≈ 2.51 µM), respectively.

Consider `CC(C)(O/N=C(\C(=O)NC1C(=O)N2C(C(=O)O)=C(C[N+]3(CCNC(=O)c4ccc(O)c(O)c4Cl)CCCC3)CS[C@H]12)c1ccc(O)c(F)c1)C(=O)[O-]` (some centres unmarked) [Compound I-17], for which the MIC came out at 0.25 µg/mL (≈ 0.327 µM) in experiment [1]; 1 µg/mL (≈ 1.31 µM) in experiment [3]; 1 µg/mL (≈ 1.31 µM) in [4]; 4 µg/mL (≈ 5.23 µM) in experiment [5]; 2 µg/mL (≈ 2.62 µM) in experiment [6].
